Experimental data as given in patent US20030229063A1, “Use of 4-hydroxytestosterone to lower estrogen levels in humans” (priority 2002, published 2003).

Legend:
aromatase enzyme complex = target: T1, aromatase enzyme complex (Homo sapiens, UniProt P11511); conditions: irrevocably attaches the enzyme; cited from earlier work
T1 sequence (P11511 1-503): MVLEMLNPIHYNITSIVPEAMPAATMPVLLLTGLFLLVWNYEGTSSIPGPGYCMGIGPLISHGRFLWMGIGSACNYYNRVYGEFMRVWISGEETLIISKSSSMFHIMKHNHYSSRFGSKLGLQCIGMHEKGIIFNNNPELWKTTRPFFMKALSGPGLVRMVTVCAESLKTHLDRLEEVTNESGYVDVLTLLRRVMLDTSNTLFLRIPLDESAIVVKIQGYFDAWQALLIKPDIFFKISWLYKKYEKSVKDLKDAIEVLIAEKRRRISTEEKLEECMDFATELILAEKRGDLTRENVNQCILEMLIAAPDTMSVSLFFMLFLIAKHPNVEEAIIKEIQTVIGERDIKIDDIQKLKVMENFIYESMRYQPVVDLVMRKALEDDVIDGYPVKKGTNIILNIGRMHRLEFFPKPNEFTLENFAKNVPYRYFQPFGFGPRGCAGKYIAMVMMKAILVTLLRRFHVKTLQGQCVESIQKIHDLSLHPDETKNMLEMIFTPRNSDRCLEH

aromatase [1] = target: T2, aromatase (Homo sapiens, UniProt P11511); test: clinical study of peroral aromatase inhibition in man; format: in vivo; set-up: from tissue; host or cells: in vivo, human subjects (whole body); conditions: in humans
T2 sequence (P11511 1-503): T1 sequence (P11511 1-503)

aromatase [2] = target: T2, aromatase; conditions: androstenedione vs testosterone as aromatase substrates; cited from earlier work

Row | Compound | ability to aromatize to the corresponding estrogen (aromatase [2]) | other results
1 | C[C@]12CCC(=O)C(O)=C1CC[C@@H]1[C@@H]2CC[C@]2(C)C(=O)CC[C@@H]12 [4-hydroxyandrostenedione] |  | mode of aromatase inhibition (aromatase enzyme complex): suicide substrate for the aromatase enzyme complex
2 | C[C@]12CC[C@H]3[C@@H](CCC4=C(O)C(=O)CC[C@@]43C)[C@@H]1CC[C@@H]2O [4-hydroxytestosterone, 4,17b-dihydroxy-4-androstene-3-one] |  | efficacy as an inhibitor of aromatase compared with 4-hydroxyandrostenedione (aromatase [1]): equally high level of efficacy in humans as an inhibitor of aromatase
3 | C[C@]12CCC(=O)C=C1CC[C@@H]1[C@@H]2CC[C@]2(C)C(=O)CC[C@@H]12 [androstenedione] | both hormones aromatized with equal efficacy | 
4 | C[C@]12CC[C@H]3[C@@H](CCC4=CC(=O)CC[C@@]43C)[C@@H]1CC[C@@H]2O [testosterone] | both hormones aromatized with equal efficacy | 
